Experiment [1] concerns the target T1, pancreatic elastase (Sus scrofa, UniProt P00772). Put plainly: Resistance of pretreated radiolabelled elastin to hydrolysis by pancreatic elastase. The conditions noted are these: elastin pretreated 24 hours, washed, then 0.05 mg pancreatic elastase; molar ratio inhibitor/enzyme 5 × 10^4. Format: biochemical, hog. As to the method:
(1c) Elastin pretreated with these substances is partially resistant to enzymatic hydrolysis by the elastases.
For these tests, elastin has been radiolabelled with tritium borohydride NaBH4, specific activity: 1.7×10^5 cmp/mg.
1 mg of elastin is treated with […] of a solution of different compounds in 1 ml of Tris HCl buffer, pH-8.0, for 24 hours; the mixture is centrifuged and the insoluble elastin washed with 1 ml of buffer. 0.05 mg of pancreatic elastase is then added and hydrolysis of the polymer is quantified by measurement of the radioactive peptides liberated during the course of the hydrolysis.

The target of another experiment is T2, hog pancreatic elastase (Sus scrofa, UniProt P00772).
T2 construct: Purified elastases employed: hog pancreatic elastase (120 U/mg); host or cells: pancreas, by the enzyme's name only
T2 sequence (P00772 27-266): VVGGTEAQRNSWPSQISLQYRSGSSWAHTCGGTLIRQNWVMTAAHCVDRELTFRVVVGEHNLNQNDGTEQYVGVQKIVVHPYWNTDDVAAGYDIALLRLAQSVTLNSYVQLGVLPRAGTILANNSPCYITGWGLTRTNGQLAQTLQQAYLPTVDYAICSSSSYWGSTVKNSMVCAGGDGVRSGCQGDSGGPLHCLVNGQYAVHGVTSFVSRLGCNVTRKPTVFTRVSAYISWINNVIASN
Kind of experiment: Inhibition of purified pancreatic elastase, hydrolysis of synthetic paranitroanilide substrates. Format: biochemical. The conditions noted are these: Pancreatic elastase 4×10^-9 M; molar ratio inhibitor/enzyme 4 × 10^4; 15 minutes pre-incubation. The procedure: (§1) Purified elastases employed: hog pancreatic elastase (120 U/mg) and purified human leucocytic elastase starting from the spleen.
(§2) Molar concentration of these enzymes: pancreatic elastase: 4×10^-9 M; leucocytic elastase: 10×10^-9 M.
(§3) The enzymatic activity of these elastases is followed by hydrolysis of specific synthetic substrates: N-succinoyltrialanine paranitroanilide, acetyl-bis alanylprolyl-alanine paranitroanilide at a final concentration of 1.25 mM in a Tris/HCl buffer, pH=8-8.6. The variation in optical density at 410 nm is followed directly in a Beckman type Acta C III spectrophotometer.
(§4) In the inhibition tests, the oleoyl compounds are pre-incubated 15 minutes with the elastases before determing the residual enzymatic activities.

For experiment [2], the target named is T3, human leucocytic elastase (Homo sapiens, UniProt P08246).
T3 construct: purified human leucocytic elastase starting from the spleen; from tissue; host or cells: human spleen
T3 sequence (P08246 30-267): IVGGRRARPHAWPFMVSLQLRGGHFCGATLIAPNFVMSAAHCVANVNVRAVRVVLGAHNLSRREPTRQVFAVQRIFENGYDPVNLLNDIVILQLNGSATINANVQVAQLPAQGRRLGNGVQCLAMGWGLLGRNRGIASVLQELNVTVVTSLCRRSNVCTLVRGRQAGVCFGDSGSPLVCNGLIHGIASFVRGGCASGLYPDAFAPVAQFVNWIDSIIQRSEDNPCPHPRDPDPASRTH
Put plainly: Inhibition of purified leucocytic elastase, hydrolysis of synthetic paranitroanilide substrates. Format: biochemical. Particulars: for Percent inhibition: Leucocytic elastase 10×10^-9 M, molar ratio inhibitor/enzyme 4 × 10^4, 15 minutes pre-incubation; for elastase inhibitor (conclusion in words): conclusion on elastases in general. As to the method:
as §1, §2, §3, §4

Experiment [3] has as its target T1, pancreatic elastase. Put plainly: In vivo inhibition of degradation of cutaneous elastic fibers induced by intradermal injection of pancreatic elastase. Also noted: host or cells: exogenous enzyme injected into rabbit skin. The conditions noted are these: rabbit skin, intradermal pretreatment, histology and quantitative morphometry. As to the method: 2. In vivo study of the inhibiting action of Oleoyl-bis-alanyl-proline-alanine towards the enzymatic degradation of cutaneous elastic fibers induced by intradermal injection of pancreatic elastase
For these tests, young Garenne rabbits (1 month) have been employed. 3 types of intradermal injections (volume: 0.25 ml; solvent: phosphate buffer, pH 7.0) have been performed on the backs of the test animals.
1. Control injection: injection of 0.25 ml of phosphate buffer only;
2. Injection of hog pancreatic elastase: 10 micrograms (1.2 units […]) in 0.25 ml of buffer; and
3. Injections of 50-250 micrograms of Ol--(Ala)2 --Pro--Ala (8×10^-8 to 3×10^-7 mole) in 0.25 ml of buffer followed by an injection at the same site of 10 micrograms (1.2 units, 4×10^-10 mole) of pancreatic elastase in 0.25 ml of buffer.
Different samples of rabbit skin are then treated in histology in order to permit visualization of elastic fibers.
The histologic observation and studies of quantitative morphometry reveal: […]

The values that follow come from US4665053A, “Peptide derivatives, the preparation and their use as elastase inhibitors” (Centre National de la Recherche Scientifique, priority 1983, dated 1987).

The structures appear in SMILES notation. Residues, ends and D or L forms follow the SMILES beside them. *: point of attachment. Oleoyl = CCCCCCCC/C=C\CCCCCCCC(=O)*

T1 sequence (P00772 27-266): as the sequence (P00772 27-266) above

In the case of `CC(C)[C@H](NC(=O)[C@@H]1CCCN1C(=O)[C@H](C)NC(=O)[C@H](C)N)C(=O)O` [H(Ala)2 Pro Valine, L-Alanyl-L-Alanyl-L-Prolyl-L-Valine, reference compound] (H-AAPV-OH), the “Percent inhibition relative to samples without pretreatment” value at pancreatic elastase [1] was 0%.
Consider `CCCCCCCC/C=C\CCCCCCCC(=O)N[C@@H](C)C(=O)N[C@@H](C)C(=O)N1CCC[C@H]1C(=O)N[C@@H](C)C(=O)O` [Ol(Ala)2 Pro Alanine, Oleoyl-L-Alanyl-L-Alanyl-L-Prolyl-L-Alanine] (Oleoyl-AAPA-OH), for which the Percent inhibition at hog pancreatic elastase came out at 15%; in experiment [2] it was 5%. For the same compound, the “elastase inhibitor (conclusion in words)” value in experiment [2] is recorded as “act as elastase inhibitors”. In addition, the figures for the elastic tissue preserved at pancreatic elastase [3] (molar ratio inhibitor/enzyme 2×10^2) and at pancreatic elastase [3] (molar ratio inhibitor/enzyme 10^3) were 40-60% and 60-80%, respectively.
For the compound `C[C@H](N)C(=O)N[C@@H](C)C(=O)N1CCC[C@H]1C(=O)N[C@@H](C)C(=O)O` [H(Ala)2 Pro Alanine, L-Alanyl-L-Alanyl-L-Proyl-Alanine, reference compound] (H-AAPA-OH), at pancreatic elastase [1], the “Percent inhibition relative to samples without pretreatment” value stood at 0%.
On to `CCCCCCCC/C=C\CCCCCCCC(=O)N[C@@H](C)C(=O)N[C@@H](C)C(=O)N1CCC[C@H]1C(=O)N[C@H](C(=O)O)C(C)C` [Ol(Ala)2 Pro Valine, Oleoyl-L-Alanyl-L-Alanyl-L-Prolyl-L-Valine] (Oleoyl-AAPV-OH), for which the “Percent inhibition relative to samples without pretreatment” value at pancreatic elastase [1] turned out to be 46%. Further, in experiment [2], the Percent inhibition is 51% and the “elastase inhibitor (conclusion in words)” value was “act as elastase inhibitors”.
With `CCCCCCCC/C=C\CCCCCCCC(=O)N[C@@H](C)C(=O)N[C@@H](C)C(=O)N1CCC[C@H]1C(=O)N[C@@H](C)C=O` [Ol(Ala)2 Pro Alaninal, Oleoyl-L-Alanyl-L-Alanyl-L-Prolyl-L-Alaninal] (Oleoyl-AAPA-aldehyde), the “Percent inhibition relative to samples without pretreatment” value at pancreatic elastase [1] is 98%. Moreover, on hog pancreatic elastase, the Percent inhibition was determined as 85%. In experiment [2], the Percent inhibition stood at 90% and the “elastase inhibitor (conclusion in words)” value is “act as elastase inhibitors”.
